Results: ChEMBL document CHEMBL1144829, “2-Arylbenzoxazoles as novel cholesteryl ester transfer protein inhibitors: optimization via array synthesis” (Bioorg Med Chem Lett, 2008)

How the values were obtained:
[1] = target: T1, Cholesteryl ester transfer protein (Homo sapiens, UniProt P11597); assay: Inhibition of human CETP by scintillation proximity assay
T1 sequence (P11597 whole entry): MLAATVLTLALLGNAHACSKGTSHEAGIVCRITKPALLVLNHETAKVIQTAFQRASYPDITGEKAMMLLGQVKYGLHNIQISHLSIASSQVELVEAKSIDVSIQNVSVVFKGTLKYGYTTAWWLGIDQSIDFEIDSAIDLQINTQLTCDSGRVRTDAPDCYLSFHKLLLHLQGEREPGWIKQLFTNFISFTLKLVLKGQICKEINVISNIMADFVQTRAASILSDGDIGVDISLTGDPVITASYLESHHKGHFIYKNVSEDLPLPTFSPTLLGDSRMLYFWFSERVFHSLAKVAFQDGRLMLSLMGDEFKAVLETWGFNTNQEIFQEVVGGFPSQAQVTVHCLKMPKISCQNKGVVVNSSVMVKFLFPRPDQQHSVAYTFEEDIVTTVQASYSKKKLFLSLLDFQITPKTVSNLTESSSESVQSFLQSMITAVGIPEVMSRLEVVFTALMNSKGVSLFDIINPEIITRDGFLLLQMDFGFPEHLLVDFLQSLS

[2] = target: T1, Cholesteryl ester transfer protein; assay: Inhibition of CETP in human whole plasma

Row | IC50 [1] | IC50 [2] | Compound
1 | > 32 µM | – | Cc1ccccc1OCC(=O)Nc1ccc(-c2nc3c([N+](=O)[O-])cccc3o2)cc1
2 | 1.3 µM | 11 µM | Cc1cc(C)c2oc(-c3ccc(NC(=O)COc4cccc(Cl)c4)cc3)nc2c1
3 | > 10 µM | – | Cc1cc(C)c2oc(-c3ccc(NC(=O)COc4ccccc4C(C)C)cc3)nc2c1
4 | 1.1 µM | 51 µM | Cc1cc(C)c2oc(-c3ccc(NC(=O)COc4cccc(F)c4)cc3)nc2c1
5 | 0.14 µM | 4.5 µM | Cc1ccc(OCC(=O)Nc2ccc(-c3nc4cc(C)cc(C)c4o3)cc2)c(C)c1
6 | > 32 µM | – | COc1ccc2nc(-c3ccc(NC(=O)COc4ccccc4C)cc3)oc2c1
7 | 0.097 µM | 26 µM | Cc1ccccc1OCC(=O)Nc1ccc(-c2nc3cc(Cl)cc(Br)c3o2)cc1
8 | 0.47 µM | 21 µM | Cc1ccccc1OCC(=O)Nc1ccc(-c2nc3cc(Cl)ccc3o2)cc1
9 | > 10 µM | – | Cc1cc(C)cc(OCC(=O)Nc2ccc(-c3nc4cc(C)cc(C)c4o3)cc2)c1
10 | > 10 µM | 32 µM | Cc1cc(C)c2oc(-c3ccc(NC(=O)COc4cccc(C(F)(F)F)c4)cc3)nc2c1
11 | 1.9 µM | – | Cc1ccccc1OCC(=O)Nc1ccc(-c2nc3cc(-c4ccccc4)ccc3o2)cc1
12 | 8.3 µM | – | COc1ccccc1OCC(=O)Nc1ccc(-c2nc3cc(C)cc(C)c3o2)cc1
13 | 0.011 µM | 4.3 µM | Cc1cc(Br)ccc1OCC(=O)Nc1ccc(-c2nc3cc(C#N)ccc3o2)cc1
14 | 1.3 µM | 27 µM | Cc1ccccc1OCC(=O)Nc1ccc(-c2nc3cc(CO)ccc3o2)cc1
15 | 0.056 µM | 2.5 µM | Cc1cc(C)c2oc(-c3ccc(NC(=O)COc4ccc(Cl)c5c4CCC5)cc3)nc2c1
16 | 0.023 µM | 4.9 µM | Cc1cc(C)c2oc(-c3ccc(NC(=O)COc4ccc(F)cc4C)cc3)nc2c1
17 | 9.3 µM | – | CCS(=O)(=O)c1ccc2oc(-c3ccc(NC(=O)COc4ccccc4C)cc3)nc2c1
18 | 0.12 µM | 18 µM | Cc1ccccc1OCC(=O)Nc1ccc(-c2nc3cc([N+](=O)[O-])ccc3o2)cc1
19 | 0.2 µM | – | Cc1cc(C)c2oc(-c3ccc(NC(=O)COc4ccccc4OC(F)(F)F)cc3)nc2c1
20 | > 10 µM | – | Cc1cc(C)c2oc(-c3ccc(NC(=O)COc4c(Cl)cccc4Cl)cc3)nc2c1
21 | 0.085 µM | 3.5 µM | Cc1cc(C)c2oc(-c3ccc(NC(=O)COc4ccc(C)c5c4CCC5)cc3)nc2c1

Row | IC50 [1] | IC50 [2] | Compound
22 | > 32 µM | – | COc1ccc2oc(-c3ccc(NC(=O)COc4ccccc4C)cc3)nc2c1
23 | > 32 µM | – | Cc1ccccc1OCC(=O)Nc1ccc(-c2nc3cc(C(=O)O)ccc3o2)cc1
24 | 3.6 µM | 61 µM | Cc1cc(C)c2oc(-c3ccc(NC(=O)COc4cccc(OC(F)(F)F)c4)cc3)nc2c1
25 | 0.69 µM | 18 µM | Cc1cccc(OCC(=O)Nc2ccc(-c3nc4cc(C)cc(C)c4o3)cc2)c1
26 | 0.096 µM | 2.7 µM | Cc1cc(C)c2oc(-c3ccc(NC(=O)COc4ccc(Cl)cc4C)cc3)nc2c1
27 | 1.2 µM | 18 µM | CC(=O)c1ccc2oc(-c3ccc(NC(=O)COc4ccccc4C)cc3)nc2c1
28 | 0.057 µM | 3.3 µM | Cc1ccccc1OCC(=O)Nc1ccc(-c2nc3cc(C#N)ccc3o2)cc1
29 | 0.12 µM | 4.9 µM | Cc1cc(C)c2oc(-c3ccc(NC(=O)COc4ccc(Cl)c(C(F)(F)F)c4)cc3)nc2c1
30 | 0.44 µM | 28 µM | Cc1ccccc1OCC(=O)Nc1ccc(-c2nc3cc(Br)ccc3o2)cc1
31 | > 32 µM | – | COC(=O)c1ccc2nc(-c3ccc(NC(=O)COc4ccccc4C)cc3)oc2c1
32 | 0.018 µM | 1.3 µM | COC(=O)c1c(Cl)ccc(OCC(=O)Nc2ccc(-c3nc4cc(C#N)ccc4o3)cc2)c1C
33 | 7.3 µM | 31 µM | Cc1cc(C)c2oc(-c3ccc(NC(=O)COc4ccc(F)cc4)cc3)nc2c1
34 | 0.2 µM | 13 µM | Cc1cc(C)c2oc(-c3ccc(NC(=O)COc4ccc(Cl)c(Cl)c4)cc3)nc2c1
35 | 0.042 µM | 2.8 µM | COC(=O)c1c(Cl)ccc(OCC(=O)Nc2ccc(-c3nc4cc(C)cc(C)c4o3)cc2)c1C
36 | > 10 µM | – | Cc1cc(C)c2oc(-c3ccc(NC(=O)COc4ccc(OC(F)(F)F)cc4)cc3)nc2c1
37 | > 32 µM | – | COC(=O)c1ccc2oc(-c3ccc(NC(=O)COc4ccccc4C)cc3)nc2c1
38 | 1.1 µM | 31 µM | Cc1ccc2oc(-c3ccc(NC(=O)COc4ccccc4C)cc3)nc2c1
39 | 0.049 µM | 18 µM | Cc1ccccc1OCC(=O)Nc1ccc(-c2nc3cc(Cl)cc([N+](=O)[O-])c3o2)cc1
40 | > 32 µM | – | Cc1ccccc1OCC(=O)Nc1ccc(-c2nc3ccc(F)cc3o2)cc1
41 | 2.3 µM | – | Cc1cc(C)c2oc(-c3ccc(NC(=O)COc4cccc(-c5ccccc5)c4)cc3)nc2c1
42 | > 10 µM | – | Cc1cc(C)c2oc(-c3ccc(NC(=O)COc4ccccc4Cl)cc3)nc2c1

Row | IC50 [1] | IC50 [2] | Compound
43 | > 10 µM | – | Cc1cc(C)c2oc(-c3ccc(NC(=O)COc4ccccc4F)cc3)nc2c1
44 | > 10 µM | – | Cc1cc(C)c2oc(-c3ccc(NC(=O)COc4cc(Cl)ccc4Cl)cc3)nc2c1
45 | 0.031 µM | 3.2 µM | Cc1cc(C)c2oc(-c3ccc(NC(=O)COc4ccc(Br)cc4C)cc3)nc2c1
46 | 13 µM | – | Cc1ccc2nc(-c3ccc(NC(=O)COc4ccccc4C)cc3)oc2c1
47 | 3.3 µM | – | Cc1cc(C)c2oc(-c3ccc(NC(=O)COc4ccccc4-c4ccccc4)cc3)nc2c1
48 | > 10 µM | – | Cc1cc(C)c2oc(-c3ccc(NC(=O)COc4ccc(C#N)cc4)cc3)nc2c1
49 | 1.7 µM | 100 µM | Cc1ccccc1OCC(=O)Nc1ccc(-c2nc3cccc(C)c3o2)cc1
50 | > 10 µM | – | COc1ccc(OCC(=O)Nc2ccc(-c3nc4cc(C)cc(C)c4o3)cc2)cc1
51 | 0.9 µM | 67 µM | Cc1cc(C)c2oc(-c3ccc(NC(=O)COc4cccc(C(C)C)c4)cc3)nc2c1
52 | 0.092 µM | 9.1 µM | Cc1ccccc1OCC(=O)Nc1ccc(-c2nc3cc(C(F)(F)F)cc(C(F)(F)F)c3o2)cc1
53 | > 10 µM | – | Cc1cc(C)c2oc(-c3ccc(NC(=O)COc4ccc(-c5ccccc5)cc4)cc3)nc2c1
54 | 0.24 µM | 26 µM | Cc1ccc(OCC(=O)Nc2ccc(-c3nc4cc(C)cc(C)c4o3)cc2)cc1
55 | > 32 µM | – | Cc1ccccc1OCC(=O)Nc1ccc(-c2nc3ccc(N4CCCC4)cc3o2)cc1
56 | > 32 µM | – | Cc1ccccc1OCC(=O)Nc1ccc(-c2nc3cccc(C(=O)O)c3o2)cc1
57 | 0.018 µM | 4.3 µM | N#Cc1ccc2oc(-c3ccc(NC(=O)COc4ccc(Cl)c(C(F)(F)F)c4)cc3)nc2c1
58 | 0.28 µM | 8.9 µM | Cc1cc(C)c2oc(-c3ccc(NC(=O)COc4ccccc4C)cc3)nc2c1
59 | 0.015 µM | 3.2 µM | N#Cc1ccc2oc(-c3ccc(NC(=O)COc4ccc(Cl)c5c4CCC5)cc3)nc2c1
60 | 0.01 µM | 0.91 µM | Cc1c(Cl)ccc(OCC(=O)Nc2ccc(-c3nc4cc(C#N)ccc4o3)cc2)c1C
61 | > 32 µM | – | Cc1ccccc1OCC(=O)Nc1ccc(-c2nc3ccc(Cl)cc3o2)cc1
62 | > 10 µM | – | COc1cccc(OCC(=O)Nc2ccc(-c3nc4cc(C)cc(C)c4o3)cc2)c1
63 | > 10 µM | – | Cc1cc(C)c2oc(-c3ccc(NC(=O)COc4ccc(C(F)(F)F)cc4)cc3)nc2c1

Row | IC50 [1] | IC50 [2] | Compound
64 | 11 µM | 71 µM | Cc1ccccc1OCC(=O)Nc1ccc(-c2nc3cc(OC(F)(F)F)ccc3o2)cc1
65 | 0.38 µM | 20 µM | Cc1cc(C)c2oc(-c3ccc(NC(=O)COc4ccc(Cl)cc4)cc3)nc2c1
66 | 0.24 µM | 27 µM | CC(=O)c1cc(C)cc2nc(-c3ccc(NC(=O)COc4ccccc4C)cc3)oc12
67 | 0.088 µM | 11 µM | Cc1ccccc1OCC(=O)Nc1ccc(-c2nc3cc(Cl)cc(Cl)c3o2)cc1
68 | 3.5 µM | 80 µM | COC(=O)c1cccc2nc(-c3ccc(NC(=O)COc4ccccc4C)cc3)oc12
69 | 0.04 µM | 1.7 µM | Cc1cc(C)c2oc(-c3ccc(NC(=O)COc4ccc(Cl)c(C)c4C)cc3)nc2c1
70 | 0.59 µM | 51 µM | Cc1ccccc1OCC(=O)Nc1ccc(-c2nc3cc(C(F)(F)F)ccc3o2)cc1
71 | 0.22 µM | – | COC(=O)c1ccccc1OCC(=O)Nc1ccc(-c2nc3cc(C)cc(C)c3o2)cc1
72 | > 10 µM | – | Cc1cc(C)c2oc(-c3ccc(NC(=O)COc4c(C)cccc4Cl)cc3)nc2c1
73 | > 10 µM | – | Cc1ccc(C)c(OCC(=O)Nc2ccc(-c3nc4cc(C)cc(C)c4o3)cc2)c1
74 | 0.052 µM | 2.5 µM | Cc1ccccc1OCC(=O)Nc1ccc(-c2nc3cc(C#N)cc(Cl)c3o2)cc1
75 | > 32 µM | – | Cc1ccccc1OCC(=O)Nc1ccc(-c2nc3ccc([N+](=O)[O-])cc3o2)cc1
76 | > 10 µM | – | COC(=O)c1cccc(OCC(=O)Nc2ccc(-c3nc4cc(C)cc(C)c4o3)cc2)c1
77 | > 32 µM | – | Cc1ccccc1OCC(=O)Nc1ccc(-c2nc3c(C)cccc3o2)cc1
78 | > 10 µM | – | Cc1cc(C)c2oc(-c3ccc(NC(=O)COc4cccc(C#N)c4)cc3)nc2c1
79 | > 32 µM | – | Cc1ccccc1OCC(=O)Nc1ccc(-c2nc3cc(C(C)(C)C)ccc3o2)cc1
80 | > 32 µM | – | Cc1ccccc1OCC(=O)Nc1ccc(-c2nc3cc(F)ccc3o2)cc1
81 | 1.9 µM | 91 µM | Cc1cc(C)c2oc(-c3ccc(NC(=O)COc4ccccc4C(F)(F)F)cc3)nc2c1
82 | > 10 µM | – | Cc1cc(C)c2oc(-c3ccc(NC(=O)COc4ccccc4C#N)cc3)nc2c1
83 | 0.085 µM | 40 µM | Cc1cc(Cl)ccc1OCC(=O)Nc1ccc(-c2nc3cc(C#N)ccc3o2)cc1
